# Results taken from patent publication USRE43802E1, “α- and β-amino acid hydroxyethylamino sulfonamides useful as retroviral protease inhibitors” (G.D. Searle LLC, priority 1992, dated 2012).
# Target: T1, HIV protease (Human immunodeficiency virus type 1 group M subtype B, UniProt P04585)
# T1 construct: HIV protease is diluted in the assay buffer to a final enzyme concentration of 12.3 nanomolar, based on a molecular weight of 10,780
# Test: HIV protease enzyme assay (fluorescence, substrate 2-Ile-Nle-Phe(p-NO2)-Gln-ArgNH2)
# Type: biochemical
# Details: IC50 (nM), Table 21; HIV protease enzyme assay
# Description: The enzyme method is described below. […] The positive control is MVT-101 (Miller, M. et al, Science, 246, 1149 (1989)] The assay conditions are as follows:
# Assay buffer: 20 mM sodium phosphate, pH 6.4 20% glycerol 1 mM EDTA 1 mM DTT 0.1% CHAPS
# The above described substrate is dissolved in DMSO, then diluted 10 fold in assay buffer. Final substrate concentration in the assay is 80 μM.
# The final concentration of DMSO is 14% and the final concentration of glycerol is 18%. The test compound is dissolved in DMSO and diluted in DMSO to 10× the test concentration; 10 μl of the enzyme preparation is added, the materials mixed and then the mixture is incubated at ambient temperature for 15 minutes. The enzyme reaction is initiated by the addition of 40 μl of substrate. The increase in fluorescence is monitored at 4 time points (0, 8, 16 and 24 minutes) at ambient temperature. Each assay is carried out in duplicate wells.
row,SMILES,IC50 [nM]
1,CC(C)CCN(C[C@@H](O)[C@H](Cc1ccccc1)NC(=O)[C@@H](NC(=O)CN(C)C)C(C)(C)C)S(=O)(=O)c1ccccc1 [Entry 11],3
2,CC(C)CCN(C[C@@H](O)[C@H](Cc1ccccc1)NC(=O)[C@@H](NC(=O)CN(C)C)C(C)(C)C)S(C)(=O)=O [Entry 6],> 100
3,CC(C)CCN(C[C@@H](O)[C@H](Cc1ccccc1)NC(=O)c1ccccc1)S(=O)(=O)c1ccccc1 [Entry 8],85

# Same assay, conditions: Table 18A; HIV protease enzyme assay; read-out: IC50
row,SMILES,IC50 [nM]
1,CCOc1ccc(S(=O)(=O)N(CC(C)C)C[C@@H](O)[C@H](Cc2ccccc2)NC(=O)OCc2ccccc2)cc1 [Entry 12],20
2,O=C(N[C@@H](Cc1ccccc1)[C@H](O)CN(C1CCCCC1)S(=O)(=O)c1ccccc1)OCc1ccccc1 [Entry 5],19
3,CCCN(C[C@@H](O)[C@H](Cc1ccccc1)NC(=O)[C@H](CC(N)=O)NC(=O)OCc1ccccc1)S(=O)(=O)c1ccccc1 [Entry 7],3.6
4,CC(C)CCN(C[C@@H](O)[C@H](Cc1ccccc1)NC(=O)[C@@H](NC(=O)CN(C)C)C(C)(C)C)S(=O)(=O)c1ccccc1 [Entry 9],3.5
5,CC(C)CCN(C[C@@H](O)[C@H](Cc1ccccc1)NC(=O)[C@H](Cc1c[nH]cn1)NC(=O)OCc1ccccc1)S(=O)(=O)c1ccccc1 [Entry 8],4.2
6,CC(C)CCN(C[C@@H](O)[C@H](Cc1ccccc1)NC(=O)OCc1ccccc1)S(=O)(=O)c1ccc([N+](=O)[O-])cc1 [Entry 6],10

# Same assay, conditions: Table 19B; @ 1 uM
row,SMILES,IC50 (uM) or % inhib: % inhib @ 1 uM [%]
1,CC(C)CN(C[C@@H](O)[C@H](Cc1ccccc1)NC(=O)OCc1ccccc1)S(C)(=O)=O [Table 1a Entry 51],31
2,CC(C)CCN(C[C@@H](O)[C@H](Cc1ccccc1)NC(=O)OCc1ccccc1)S(=O)(=O)CCl [Table 1a Entry 52],39
3,CC(C)CCN(C[C@@H](O)[C@H](Cc1ccccc1)NC(=O)C(NC(=O)CN(C)C)C(C)(C)C)S(C)(=O)=O (stereo partly drawn) [Table 3 Entry 2],38
4,CC(C)CCN(C[C@@H](O)[C@H](Cc1ccccc1)NC(=O)OCc1ccccc1)S(C)(=O)=O [Table 1a Entry 41],24

# Same assay, conditions: Table 19B; @ 1.0 uM (second value of the cell)
row,SMILES,IC50 (uM) or % inhib: % inhib @ 1.0 uM [%]
1,CC(C)CCN(C[C@@H](O)[C@H](Cc1ccccc1)NC(=O)C(NC(=O)CN(C)C)C(C)(C)C)S(C)(=O)=O (stereo partly drawn) [Table 3 Entry 2],90

# Same assay, conditions: Table 19B; @ 10 uM
row,SMILES,IC50 (uM) or % inhib: % inhib @ 10 uM [%]
1,CC(C)CN(C[C@@H](O)[C@H](Cc1ccccc1)NC(=O)OCc1ccccc1)S(C)(=O)=O [Table 1a Entry 51],76
2,CC(C)CCN(C[C@@H](O)[C@H](Cc1ccccc1)NC(=O)OCc1ccccc1)S(=O)(=O)CCl [Table 1a Entry 52],81
3,CC(C)CCN(C[C@@H](O)[C@H](Cc1ccccc1)NC(=O)OCc1ccccc1)S(C)(=O)=O [Table 1a Entry 41],74

# Same assay, conditions: Table 19B; HIV protease enzyme assay; read-out: IC50 (uM) or % inhib: IC50
row,SMILES,IC50 [nM]
1,CCC(C)CN(C[C@@H](O)[C@H](Cc1ccccc1)NC(=O)OCc1ccccc1)S(=O)(=O)c1ccc(OC)cc1 (stereo partly drawn) [Table 1a Entry 56],3.6
2,CC(C)CCN(C[C@@H](O)[C@H](Cc1ccccc1)NC(=O)[C@H](CC(N)=O)NC(=O)OCc1ccccc1)S(=O)(=O)c1ccccc1 [Table 5 Entry 14],2.2
3,CC(C)CCN(CC(O)C(Cc1ccccc1)NC(=O)C(N)C(C)(C)C)S(=O)(=O)c1ccccc1 (stereo not drawn) [Table 11 Entry 1],130
4,CCCS(=O)(=O)N(CCC(C)C)C[C@@H](O)[C@H](Cc1ccccc1)NC(=O)OCc1ccccc1 [Table 1a Entry 40],210
5,C=CCOC(=O)N[C@@H](Cc1ccccc1)[C@H](O)CN(CC(C)C)S(=O)(=O)c1ccc(OC)cc1 [Table 5 Entry 33],4.4
6,CC(C)CCN(C[C@@H](O)[C@H](Cc1ccccc1)NC(=O)[C@@H](NC(=O)OCc1ccccc1)C(C)(C)C)S(=O)(=O)c1ccccc1 [Table 5 Entry 22],1.8
7,CC(C)CN(C[C@@H](O)[C@H](Cc1ccccc1)NC(=O)OCc1ccccc1)S(=O)(=O)C=Cc1ccccc1 [Table 1a Entry 53],49

# Same assay, conditions: Table 20; @ 1 μM
row,SMILES,IC50 (uM) or % inhibition: % inhibition @ 1 μM [% @ 1 μM]
1,COc1ccc(S(=O)(=O)N(CC(C)C)CC(O)C(Cc2ccccc2)NC(=O)c2ccc(CS(C)(=O)=O)cc2)cc1 (stereo not drawn) [Table 5A Entry 22],63
2,COc1ccc(S(=O)(=O)N(CC(C)C)CC(O)C(Cc2ccccc2)NC(=O)c2ccccc2CS(C)(=O)=O)cc1 (stereo not drawn) [Table 5A Entry 20],85

# Same assay, conditions: Table 20; @ 10 μM
row,SMILES,IC50 (uM) or % inhibition: % inhibition @ 10 μM [% @ 10 μM]
1,COc1ccc(S(=O)(=O)N(CC(C)C)CC(O)C(Cc2ccccc2)NC(=O)c2ccccc2S(C)(=O)=O)cc1 (stereo not drawn) [Table 5A Entry 17],59

# Same assay, conditions: Table 20; HIV protease enzyme assay; read-out: IC50 (uM) or % inhibition: IC50
row,SMILES,IC50 [nM]
1,CC(C)CN(CC(O)C(Cc1ccccc1)NC(=O)c1ccccc1)S(=O)(=O)c1ccccc1 (stereo not drawn) [Table 5A Entry 24],47
2,COc1ccc(S(=O)(=O)N(CC(C)C)CC(O)C(Cc2ccccc2)NC(=O)c2cccc(S(C)(=O)=O)c2)cc1 (stereo not drawn) [Table 5A Entry 18],130
3,COc1ccc(S(=O)(=O)N(CC(C)C)CC(O)C(Cc2ccccc2)NC(=O)c2ccc(S(C)(=O)=O)cc2)cc1 (stereo not drawn) [Table 5A Entry 19],92
4,COc1ccc(S(=O)(=O)N(CC(C)C)CC(O)C(Cc2ccccc2)NC(=O)C2CCCC2)cc1 (stereo not drawn) [Table 5A Entry 1],40

# Same assay, conditions: Table 21; HIV protease enzyme assay; read-out: IC50
row,SMILES,IC50 [nM]
1,CSCCCN(C[C@@H](O)[C@H](Cc1ccccc1)NC(=O)OCc1ccccc1)S(=O)(=O)c1ccccc1 [Entry 10],45
2,COc1ccc(S(=O)(=O)N(CC(C)C)C[C@@H](O)[C@H](Cc2ccccc2)NC(=O)c2ccc3nc(N)sc3c2)cc1 [Example 76],5
3,COc1ccc(S(=O)(=O)N(CC(C)C)C[C@@H](O)[C@H](Cc2ccccc2)NC(=O)OCc2ccccn2)cc1 [Example 21],73
4,COc1ccc(S(=O)(=O)N(CC(C)C)C[C@@H](O)[C@H](Cc2ccccc2)NC(=O)c2cccc([N+](=O)[O-])c2C)cc1 [Example 48],17
5,CC(C)CN(C[C@@H](O)[C@H](Cc1ccccc1)NC(=O)OCc1cncnc1)S(=O)(=O)c1ccc(O)cc1 [Example 41],3
6,CC(C)CN(C[C@@H](O)[C@H](Cc1ccccc1)NC(=O)O[C@H]1CCSC1)S(=O)(=O)c1ccc(O)cc1 [Example 42],2
7,Cc1c(N)cccc1C(=O)N[C@@H](Cc1ccccc1)[C@H](O)CN(CC(C)C)S(=O)(=O)c1ccc2c(c1)OCO2 [Example 71],5
8,O=C(N[C@@H](Cc1ccccc1)[C@H](O)CN(C1CCCCC1)S(=O)(=O)c1ccccc1)OCc1ccccc1 [Entry 5],19
9,COc1ccc(S(=O)(=O)N(CC(C)C)C[C@@H](O)[C@H](Cc2ccccc2)NC(=O)OCc2cncnc2)cc1 [Example 23],2
10,COc1ccc(S(=O)(=O)N(CC(C)C)C[C@@H](O)[C@H](Cc2ccccc2)NC(=O)c2cc([N+](=O)[O-])ccc2C)cc1 [Example 53],21
11,COc1ccc(S(=O)(=O)N(CC(C)C)C[C@@H](O)[C@H](Cc2ccccc2)NC(=O)OCc2ccc(O)nc2)cc1 [Example 39],16
12,COc1ccc(S(=O)(=O)N(CC(C)C)C[C@@H](O)[C@H](Cc2ccccc2)NC(=O)O[C@H]2CCSC2)cc1 [Example 46],2
13,CCC(C)[C@H](NC(=O)CN(C)C)C(=O)N[C@@H](Cc1ccccc1)[C@H](O)CN(CC(C)C)S(=O)(=O)c1ccc(OC)cc1 (stereo partly drawn) [Example 13],3
14,COc1ccc(S(=O)(=O)N(CC(C)C)C[C@@H](O)[C@H](Cc2ccccc2)NC(=O)O[C@H]2CCS(=O)(=O)C2)cc1 [Example 47],3
15,CC(C)CN(C[C@@H](O)[C@H](Cc1ccccc1)NC(=O)OCc1cccnc1)S(=O)(=O)c1ccc(Cl)cc1 [Example 18],4
16,CC(C)CN(C[C@@H](O)[C@H](Cc1ccccc1)NC(=O)OCc1ccoc1)S(=O)(=O)c1ccc(N)cc1 [Example 60],5
17,CC(C)CN(C[C@@H](O)[C@H](Cc1ccccc1)NC(=O)OCc1cncs1)S(=O)(=O)c1ccc2c(c1)OCO2 [Example 70],5
18,CC(C)CN(C[C@@H](O)[C@H](Cc1ccccc1)NC(=O)OCc1ccc(N)nc1)S(=O)(=O)c1ccc(O)cc1 [Example 40],3
19,COc1ccc(S(=O)(=O)N(CC(C)C)C[C@@H](O)[C@H](Cc2ccccc2)NC(=O)OCc2ccc(N)nc2)cc1 [Example 38],4
20,Cc1cc(O)ccc1C(=O)N[C@@H](Cc1ccccc1)[C@H](O)CN(CC(C)C)S(=O)(=O)c1ccc2c(c1)OCO2 [Example 72],5
21,COc1ccc(S(=O)(=O)N(CC(C)C)C[C@@H](O)[C@H](Cc2ccccc2)NC(=O)c2cccc(N(C)C)c2C)cc1 [Example 36],310
22,CC(C)CN(C[C@@H](O)[C@H](Cc1ccccc1)NC(=O)O[C@H]1CCOC1)S(=O)(=O)c1ccc(O)cc1 [Example 45],2
23,CC(C)CN(C[C@@H](O)[C@H](Cc1ccccc1)NC(=O)OCc1cccnc1)S(=O)(=O)c1ccc(O)cc1 [Example 20],4
24,CC(C)CN(C[C@@H](O)[C@H](Cc1ccccc1)NC(=O)OCc1cncs1)S(=O)(=O)c1ccc2c(c1)CCO2 [Example 67],5
25,COCCCN(C[C@@H](O)[C@H](Cc1ccccc1)NC(=O)OCc1ccccc1)S(=O)(=O)c1ccccc1 [Entry 9],53
26,Cc1ccccc1C(=O)N[C@@H](Cc1ccccc1)[C@H](O)CN(CC(C)C)S(=O)(=O)c1ccc(N)cc1 [Example 62],28
27,CC(C)CN(C[C@@H](O)[C@H](Cc1ccccc1)NC(=O)OCc1cncs1)S(=O)(=O)c1ccc(N)cc1 [Example 61],16
28,COc1ccc(S(=O)(=O)N(CC(C)C)C[C@@H](O)[C@H](Cc2ccccc2)NC(=O)C2CCCCC2)cc1 [Example 35],18
29,Cc1c(O)cccc1C(=O)N[C@@H](Cc1ccccc1)[C@H](O)CN(CC(C)C)S(=O)(=O)c1ccc2c(c1)OCO2 [Example 73],4
